Patent EP2931723B1, “NEW BICYCLIC COMPOUNDS AND THEIR USE AS ANTIBACTERIAL AGENTS AND -LACTAMASE INHIBITORS” (Fedora Pharmaceuticals Inc., priority 2012, dated 2014)

Legend:
Assay in all cases: MIC, antibacterial and synergistic activity
Type in all cases: cell-based
E. coli JMI 10768 [1] = details: E. coli JMI 10768 (CTX-M15 (Weak ESBL)); Meropenem + inhibitor at 4 µg/mL
K. pneumo JMI 2681 = K. pneumo JMI 2681 (Oxa-48 (Cpase))
E.coli JMI 4103 = E.coli JMI 4103 (KPC-2, Tem-1, CMY-Type)
A. baumanii JMI 2659 = A. baumanii JMI 2659 (Ges-14 (Cpase))
P. aerug JMI 149 = P. aerug JMI 149 (Bla+++D+)
E. coli JMI 4080 = tested on: E. coli JMI 4080
K. pneumo JMI 4088 [2] = details: K. pneumo JMI 4088 (KPC-3 (Cpase)); substance alone
K. pneumo JMI 2674 [3] = details: K. pneumo JMI 2674 (CTX-M15 (ESBL)); substance alone
K. pneumo JMI 2673 [4] = details: K. pneumo JMI 2673 (CTX-M14 (ESBL)); substance alone
E. cloacae JMI 36 = E. cloacae JMI 36 (P99)
E. coli JMI 10767 [5] = details: E. coli JMI 10767 (Wt)
Experimental: (§1) In the Tables 10 - 12, compounds herein disclosed were tested in combination with various antibiotics against metallo β-lactamase producing bacteria. Table 3: Synergy of the inhibitor Ex. 1 (4 µg/mL) in combination with antibiotics

K. pneumo JMI 2674 [6] = details: K. pneumo JMI 2674 (CTX-M15 (ESBL))
Summary of the method: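 Antibacterial activity was assessed as minimum inhibitory concentrations against a β-lactamase-producing bacterial strain. Each test inhibitor was combined with an antibiotic, with the inhibitor held at a fixed 4 µg/mL, to determine whether it acted synergistically and restored the antibiotic's effect against the resistant organism.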

K. pneumo JMI 2673 [7] = details: K. pneumo JMI 2673 (CTX-M14 (ESBL))
Summary of the method: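 Antibacterial synergy was assessed by testing a β-lactamase inhibitor compound in combination with antibiotics. The inhibitor was held at a fixed concentration of 4 µg/mL, and the minimum inhibitory concentration of the partner antibiotic was determined in its presence.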

K.pneumo JMI 4109 = K.pneumo JMI 4109 (SHV-1, SHV-12)
Summary of the method: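 Antibacterial synergy was assessed by pairing each inhibitor compound, at a constant concentration of 4 µg/mL, with β-lactam antibiotics. The combinations were run against bacterial strains that produce β-lactamases, and the readout was the minimum inhibitory concentration of the antibiotic in the presence of the inhibitor.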

E. coli JMI 10770 = E. coli JMI 10770 (CTX-M15 (Hyper ESBL))
Experimental: as §1

K. pneumo JMI 4088 [8] = details: K. pneumo JMI 4088 (KPC-3 (Cpase))
Summary of the method: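 The compound was tested for synergy by combining it with antibiotics and measuring minimum inhibitory concentrations against β-lactamase producing bacteria. The inhibitor was present at a fixed concentration of 4 µg/mL together with the partner antibiotic, and MIC values were recorded.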

E. coli JMI 2665 = tested on: E. coli JMI 2665
Experimental: as §1

P. aerug JMI 2686 = P. aerug JMI 2686 (KPC-2 (Cpase))
Summary of the method: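 This antibacterial synergy assay measured the minimum inhibitory concentration of antibiotics combined with the disclosed inhibitor compounds. The inhibitor was held at 4 µg/mL throughout. The aim was to see whether the added compound strengthened the antibiotic's action against the tested bacteria.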

E. coli JMI 2671 = tested on: E. coli JMI 2671
Summary of the method: (§2)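 Here the inhibitor, at a set 4 µg/mL, accompanies each antibiotic. MIC determination used MBL-positive bacteria.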

K. pneumo JMI 2699 = K. pneumo JMI 2699 (VIM-1, CTX-M3)
Summary of the method: as §2

E. coli JMI 10768 [9] = details: E. coli JMI 10768 (CTX-M15 (Weak ESBL))
Experimental: as §1

E. coli ATCC 25922 = E. coli ATCC 25922 (Wt)
E. coli JMI 10767 [10] = details: E. coli JMI 10767 (Wt); remark: listed apart in the source
[11] = Aztreonam + inhibitor at 4 µg/mL
[12] = Ceftazidime + inhibitor at 4 µg/mL
[13] = Meropenem + inhibitor at 4 µg/mL

O=C(NO[C@H]1CCCNC1)[C@@H]1CC[C@@H]2CN1C(=O)N2OS(=O)(=O)O [Ex. 2, (2S,5R)-7-Oxo-N-[(3S)-piperidin-3-yloxy] -6-(sulfooxy)-1,6-diazabicyclo[3.2.1]octane-2-carboxamide]
8 µg/mL: MIC Ceftazidime + inhibitor (E.coli JMI 4103; [12]) | MIC (E.coli JMI 4103; Escherichia coli, JMI4103, substance alone)
>16 µg/mL: MIC Ceftazidime + inhibitor (A. baumanii JMI 2659; [12])
>2 µg/mL: MIC Meropenem + inhibitor (K. pneumo JMI 2681; [13]) | MIC Meropenem + inhibitor (A. baumanii JMI 2659; [13]) | MIC Meropenem + inhibitor (P. aerug JMI 2686; [13])
0.125 µg/mL: MIC Aztreonam + inhibitor (E. cloacae JMI 36; [11]) | MIC Meropenem + inhibitor (E. cloacae JMI 36; [13]) | MIC Aztreonam + inhibitor (K. pneumo JMI 2674 [6]; [11]) | MIC Meropenem + inhibitor (K. pneumo JMI 2674 [6]; [13]) | MIC Meropenem + inhibitor (E. coli JMI 2671; E. coli JMI 2671 (VIM-19 (Cpase)), Meropenem + inhibitor at 4 µg/mL)
0.062 µg/mL: MIC Meropenem + inhibitor (K. pneumo JMI 4088 [8]; [13]) | MIC Meropenem + inhibitor (K. pneumo JMI 2699; [13])
>4 µg/mL: MIC Aztreonam + inhibitor (E.coli JMI 4103; [11]) | MIC Aztreonam + inhibitor (A. baumanii JMI 2659; [11]) | MIC Aztreonam + inhibitor (P. aerug JMI 149; [11]) | MIC Aztreonam + inhibitor (P. aerug JMI 2686; [11])
0.5 µg/mL: MIC Meropenem + inhibitor (P. aerug JMI 149; [13]) | MIC Aztreonam + inhibitor (K. pneumo JMI 4088 [8]; [11]) | MIC Ceftazidime + inhibitor (E. coli JMI 2671; E. coli JMI 2671 (VIM-19 (Cpase)), Ceftazidime + inhibitor at 4 µg/mL)
4 µg/mL: MIC Ceftazidime + inhibitor (P. aerug JMI 149; [12]) | MIC (E. coli JMI 4080; Escherichia coli, JMI4080, E. coli JMI 4080 (Tem-10), substance alone) | MIC (K. pneumo JMI 2699; substance alone, read-out: MIC) | MIC (E. coli JMI 10768 [9]; Escherichia coli, JMI10768, substance alone) | MIC (E. coli JMI 10767 [10]; Escherichia coli, JMI10767, substance alone)
≤0.25 µg/mL: MIC Ceftazidime + inhibitor (E. coli JMI 4080; E. coli JMI 4080 (Tem-10), Ceftazidime + inhibitor at 4 µg/mL) | MIC Ceftazidime + inhibitor (E. cloacae JMI 36; [12]) | MIC Ceftazidime + inhibitor (E. coli JMI 10767 [5]; [12]) | MIC Ceftazidime + inhibitor (K. pneumo JMI 2674 [6]; [12]) | MIC Ceftazidime + inhibitor (K. pneumo JMI 2673 [7]; [12]) | MIC Ceftazidime + inhibitor (K.pneumo JMI 4109; [12]) | MIC Ceftazidime + inhibitor (E. coli JMI 10770; [12]) | MIC Ceftazidime + inhibitor (K. pneumo JMI 4088 [8]; [12]) | MIC Ceftazidime + inhibitor (E. coli JMI 2665; E. coli JMI 2665 (CMY-2 (Plasmid Cpase)), Ceftazidime + inhibitor at 4 µg/mL) | MIC Ceftazidime + inhibitor (K. pneumo JMI 2699; [12]) | MIC Ceftazidime + inhibitor (E. coli JMI 10768 [9]; [12]) | MIC Ceftazidime + inhibitor (E. coli ATCC 25922; [12])
≤ 0.5 µg/mL: MIC (E. coli JMI 2665; Escherichia coli, JMI2665)
≤.062 µg/mL: MIC Aztreonam + inhibitor (E. coli JMI 4080; E. coli JMI 4080 (Tem-10), Aztreonam + inhibitor at 4 µg/mL) | MIC Aztreonam + inhibitor (E. coli JMI 10767 [5]; [11]) | MIC Aztreonam + inhibitor (K. pneumo JMI 2673 [7]; [11]) | MIC Aztreonam + inhibitor (K.pneumo JMI 4109; [11]) | MIC Aztreonam + inhibitor (E. coli JMI 10770; [11]) | MIC Aztreonam + inhibitor (E. coli JMI 2665; E. coli JMI 2665 (CMY-2 (Plasmid Cpase)), Aztreonam + inhibitor at 4 µg/mL) | MIC Aztreonam + inhibitor (E. coli JMI 2671; E. coli JMI 2671 (VIM-19 (Cpase)), Aztreonam + inhibitor at 4 µg/mL) | MIC Aztreonam + inhibitor (K. pneumo JMI 2699; [11]) | MIC Aztreonam + inhibitor (E. coli JMI 10768 [9]; [11]) | MIC Aztreonam + inhibitor (E. coli ATCC 25922; [11])
1 µg/mL: MIC Ceftazidime + inhibitor (K. pneumo JMI 2681; [12]) | MIC (K. pneumo JMI 4088 [2]) | MIC (E. coli ATCC 25922; Escherichia coli, ATCC25922, substance alone)
≤.031 µg/mL: MIC Meropenem + inhibitor (E. coli JMI 10768 [1]) | MIC Meropenem + inhibitor (E.coli JMI 4103; [13]) | MIC Meropenem + inhibitor (E. coli JMI 4080; E. coli JMI 4080 (Tem-10), Meropenem + inhibitor at 4 µg/mL) | MIC Meropenem + inhibitor (K. pneumo JMI 2673 [7]; [13]) | MIC Meropenem + inhibitor (K.pneumo JMI 4109; [13]) | MIC Meropenem + inhibitor (E. coli JMI 10770; [13]) | MIC Meropenem + inhibitor (E. coli JMI 2665; E. coli JMI 2665 (CMY-2 (Plasmid Cpase)), Meropenem + inhibitor at 4 µg/mL) | MIC Meropenem + inhibitor (E. coli ATCC 25922; [13]) | MIC Meropenem + inhibitor (E. coli JMI 10767 [10]; [13])
2 µg/mL: MIC Aztreonam + inhibitor (K. pneumo JMI 2681; [11])
16 µg/mL: MIC Ceftazidime + inhibitor (P. aerug JMI 2686; [12])
> 16 µg/mL: MIC (K. pneumo JMI 2681; substance alone, read-out: MIC) | MIC (A. baumanii JMI 2659; Acinetobacter baumannii, JMI2659, substance alone, read-out: MIC) | MIC (P. aerug JMI 149; substance alone, read-out: MIC) | MIC (K. pneumo JMI 2674 [3]) | MIC (K. pneumo JMI 2673 [4]) | MIC (E. cloacae JMI 36; Enterobacter cloacae, JMI36, substance alone, read-out: MIC) | MIC (E. coli JMI 2671; Escherichia coli, JMI2671, E. coli JMI 2671 (VIM-19 (Cpase)), substance alone)
